Calls of active or inactive are those of the source.
What was measured:
[1] = biological target: T1, Progesterone receptor (Homo sapiens) (UniProt P06401); experiment: Effective concentration against human progesterone receptor in T47D human breast cancer cell; not active (<20% efficacy and/or >10 mM potency); assay type: cell-based; conditions: Cancer cell lines
T1 sequence (whole entry): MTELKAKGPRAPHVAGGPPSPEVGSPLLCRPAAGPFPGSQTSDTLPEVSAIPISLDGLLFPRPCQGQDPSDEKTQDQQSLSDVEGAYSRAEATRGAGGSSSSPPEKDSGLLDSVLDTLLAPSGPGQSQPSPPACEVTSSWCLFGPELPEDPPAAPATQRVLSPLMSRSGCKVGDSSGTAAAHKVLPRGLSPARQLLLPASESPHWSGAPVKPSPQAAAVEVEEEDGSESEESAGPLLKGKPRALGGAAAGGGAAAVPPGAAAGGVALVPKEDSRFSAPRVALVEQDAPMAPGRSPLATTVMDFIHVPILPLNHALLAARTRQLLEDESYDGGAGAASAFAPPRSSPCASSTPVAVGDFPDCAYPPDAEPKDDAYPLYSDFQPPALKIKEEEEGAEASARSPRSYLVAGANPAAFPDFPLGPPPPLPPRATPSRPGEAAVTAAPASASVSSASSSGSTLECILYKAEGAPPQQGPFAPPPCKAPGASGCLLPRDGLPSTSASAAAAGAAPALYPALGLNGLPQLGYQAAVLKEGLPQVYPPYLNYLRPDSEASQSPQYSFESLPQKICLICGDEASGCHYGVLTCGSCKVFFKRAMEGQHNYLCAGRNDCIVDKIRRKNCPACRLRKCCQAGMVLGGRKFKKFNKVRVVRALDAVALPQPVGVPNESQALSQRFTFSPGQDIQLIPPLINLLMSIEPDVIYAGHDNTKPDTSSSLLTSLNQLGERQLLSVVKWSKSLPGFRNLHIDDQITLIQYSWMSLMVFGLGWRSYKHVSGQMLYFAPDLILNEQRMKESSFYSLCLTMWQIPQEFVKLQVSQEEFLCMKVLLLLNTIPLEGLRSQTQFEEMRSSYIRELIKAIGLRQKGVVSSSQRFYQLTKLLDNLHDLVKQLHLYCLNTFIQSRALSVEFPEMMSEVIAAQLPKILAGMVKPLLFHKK

[2] = biological target: T1, Progesterone receptor (Homo sapiens); experiment: Agonist efficacy for human progesterone receptor in T47D human breast cancer cell; not active (<20% efficacy and/or >10 mM potency); assay type: functional, cell-based
Progesterone receptor [3] = biological target: T2, Progesterone receptor (Homo sapiens, UniProt P06401)
T2 sequence (P06401 whole entry): T1 sequence (whole entry)
Description: Antagonistic activity at human progesterone receptor in CV-1 cells.

Progesterone receptor [4] = biological target: T2, Progesterone receptor; remark: listed apart in the source
Description: Binding affinity at human progesterone receptor.

Progesterone receptor [5] = biological target: T2, Progesterone receptor; remark: listed apart in the source
Description: Inhibition of human progesterone receptor activation in T47D human breast cancer cell.

[6] = biological target: T3, Mineralocorticoid receptor (Homo sapiens, UniProt P08235); experiment: Inhibition of antagonist activity towards mineralocorticoid receptor (hMR); assay type: functional
T3 sequence (P08235 whole entry): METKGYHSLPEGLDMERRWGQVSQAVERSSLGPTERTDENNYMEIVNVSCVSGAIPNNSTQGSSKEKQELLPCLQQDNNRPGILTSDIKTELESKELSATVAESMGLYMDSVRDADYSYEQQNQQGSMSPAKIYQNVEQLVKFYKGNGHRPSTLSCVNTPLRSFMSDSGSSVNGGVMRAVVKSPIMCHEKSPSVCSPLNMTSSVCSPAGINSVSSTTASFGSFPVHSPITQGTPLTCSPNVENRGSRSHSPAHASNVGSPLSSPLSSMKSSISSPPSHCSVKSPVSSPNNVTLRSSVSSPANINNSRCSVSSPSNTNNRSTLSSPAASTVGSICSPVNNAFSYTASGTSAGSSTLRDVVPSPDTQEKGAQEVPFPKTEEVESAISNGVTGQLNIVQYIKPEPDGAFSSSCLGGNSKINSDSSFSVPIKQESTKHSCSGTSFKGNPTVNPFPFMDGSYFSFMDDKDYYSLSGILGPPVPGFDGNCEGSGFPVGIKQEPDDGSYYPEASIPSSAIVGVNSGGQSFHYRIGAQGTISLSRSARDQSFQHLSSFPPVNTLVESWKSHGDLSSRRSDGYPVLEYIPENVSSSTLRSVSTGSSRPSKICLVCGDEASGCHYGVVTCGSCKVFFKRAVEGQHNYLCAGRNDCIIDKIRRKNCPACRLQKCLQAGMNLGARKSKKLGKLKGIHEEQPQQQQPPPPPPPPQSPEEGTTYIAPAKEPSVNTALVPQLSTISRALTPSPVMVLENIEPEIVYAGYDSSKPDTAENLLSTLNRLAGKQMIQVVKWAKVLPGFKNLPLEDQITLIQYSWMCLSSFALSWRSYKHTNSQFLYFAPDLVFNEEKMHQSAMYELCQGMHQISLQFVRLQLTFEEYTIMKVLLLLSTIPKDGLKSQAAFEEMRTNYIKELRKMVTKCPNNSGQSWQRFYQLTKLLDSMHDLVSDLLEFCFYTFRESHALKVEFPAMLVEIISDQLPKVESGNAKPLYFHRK

[7] = biological target: T4, Mineralocorticoid receptor (Homo sapiens) (UniProt P08235); experiment: Antagonist efficacy for mineralocorticoid receptor (hMR); assay type: functional
T4 sequence (whole entry): T3 sequence (P08235 whole entry)

Glucocorticoid receptor [8] = biological target: T5, Glucocorticoid receptor (Homo sapiens, UniProt P04150); experiment: Inhibition of antagonist activity towards glucocorticoid receptor; assay type: functional
T5 sequence (P04150 whole entry): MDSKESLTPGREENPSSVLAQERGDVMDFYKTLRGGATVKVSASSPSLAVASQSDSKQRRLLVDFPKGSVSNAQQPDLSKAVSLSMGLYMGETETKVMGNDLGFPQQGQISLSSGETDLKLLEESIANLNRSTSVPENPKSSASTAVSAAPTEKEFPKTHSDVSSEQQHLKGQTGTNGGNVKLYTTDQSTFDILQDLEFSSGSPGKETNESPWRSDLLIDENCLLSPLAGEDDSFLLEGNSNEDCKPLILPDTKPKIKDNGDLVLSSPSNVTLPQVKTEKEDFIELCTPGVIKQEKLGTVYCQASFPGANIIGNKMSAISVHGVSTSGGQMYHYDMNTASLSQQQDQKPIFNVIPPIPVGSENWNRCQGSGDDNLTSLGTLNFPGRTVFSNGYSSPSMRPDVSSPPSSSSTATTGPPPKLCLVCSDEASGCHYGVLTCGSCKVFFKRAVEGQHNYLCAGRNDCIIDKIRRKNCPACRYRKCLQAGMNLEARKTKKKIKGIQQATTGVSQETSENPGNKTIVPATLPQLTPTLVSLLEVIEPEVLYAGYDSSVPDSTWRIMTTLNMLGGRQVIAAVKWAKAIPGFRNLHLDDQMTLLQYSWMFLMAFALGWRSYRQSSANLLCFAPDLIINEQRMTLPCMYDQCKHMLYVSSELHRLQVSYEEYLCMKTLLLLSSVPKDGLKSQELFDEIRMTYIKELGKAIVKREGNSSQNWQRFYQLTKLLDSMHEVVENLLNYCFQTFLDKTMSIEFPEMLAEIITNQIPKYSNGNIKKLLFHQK

[9] = biological target: T6, Estrogen receptor (Homo sapiens) (UniProt Q92731+P03372); experiment: Antagonist efficacy for Estrogen receptor; Not active; assay type: functional
[10] = biological target: T3, Mineralocorticoid receptor; experiment: Inhibition of antagonist activity towards mineralocorticoid receptor (hMR); Not active; assay type: functional
[11] = biological target: T4, Mineralocorticoid receptor (Homo sapiens); experiment: Antagonist efficacy for mineralocorticoid receptor (hMR); Not active; assay type: functional
Androgen receptor = biological target: T7, Androgen receptor (Homo sapiens, UniProt P10275)
T7 sequence (P10275 whole entry): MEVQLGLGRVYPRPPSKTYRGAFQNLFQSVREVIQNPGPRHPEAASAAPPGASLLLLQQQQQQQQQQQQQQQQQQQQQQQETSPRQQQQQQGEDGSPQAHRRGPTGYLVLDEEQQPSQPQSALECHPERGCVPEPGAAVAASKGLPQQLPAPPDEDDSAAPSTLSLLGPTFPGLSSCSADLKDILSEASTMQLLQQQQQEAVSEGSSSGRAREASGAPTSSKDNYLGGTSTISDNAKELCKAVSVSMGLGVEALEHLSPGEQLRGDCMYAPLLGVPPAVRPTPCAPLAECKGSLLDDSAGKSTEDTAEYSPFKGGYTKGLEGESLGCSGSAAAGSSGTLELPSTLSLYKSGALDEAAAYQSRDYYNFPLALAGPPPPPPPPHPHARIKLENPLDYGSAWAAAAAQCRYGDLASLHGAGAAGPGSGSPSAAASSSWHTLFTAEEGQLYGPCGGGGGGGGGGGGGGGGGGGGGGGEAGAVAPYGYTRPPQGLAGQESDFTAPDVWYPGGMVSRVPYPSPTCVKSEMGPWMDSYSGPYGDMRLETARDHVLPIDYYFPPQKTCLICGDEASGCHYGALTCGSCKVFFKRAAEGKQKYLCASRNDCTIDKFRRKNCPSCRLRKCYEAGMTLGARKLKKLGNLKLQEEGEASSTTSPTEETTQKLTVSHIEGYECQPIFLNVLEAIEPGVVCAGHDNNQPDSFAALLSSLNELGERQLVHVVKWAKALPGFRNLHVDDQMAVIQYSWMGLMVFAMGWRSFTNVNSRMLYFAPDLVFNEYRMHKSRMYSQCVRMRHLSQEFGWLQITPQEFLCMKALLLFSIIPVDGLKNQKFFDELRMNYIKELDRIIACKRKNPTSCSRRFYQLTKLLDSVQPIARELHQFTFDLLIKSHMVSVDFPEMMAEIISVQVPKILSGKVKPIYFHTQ
Description: Inhibition of antagonist activity towards Androgen receptor

Progesterone receptor [12] = biological target: T2, Progesterone receptor; remark: listed apart in the source
Description: Effective concentration for human progesterone receptor in T47D human breast cancer cell

Progesterone receptor [13] = biological target: T2, Progesterone receptor; experiment: Effective concentration for antagonistic activity towards human progesterone in CV-1 cells; assay type: functional, cell-based
[14] = biological target: T1, Progesterone receptor (Homo sapiens); experiment: Antagonist efficacy for human progesterone in CV-1 cells; assay type: functional, cell-based
Progesterone receptor [15] = biological target: T2, Progesterone receptor; experiment: Binding towards human progesterone receptor
[16] = biological target: T6, Estrogen receptor (Homo sapiens); experiment: Antagonist efficacy for Estrogen receptor; assay type: functional
Glucocorticoid receptor [17] = biological target: T5, Glucocorticoid receptor; experiment: Inhibition of antagonist activity towards glucocorticoid receptor; not active; assay type: functional
[18] = biological target: T8, Glucocorticoid receptor (Homo sapiens) (UniProt P04150); experiment: Antagonist efficacy for glucocorticoid receptor; not active; assay type: functional
T8 sequence (whole entry): T5 sequence (P04150 whole entry)

[19] = biological target: T1, Progesterone receptor (Homo sapiens); experiment: Agonist efficacy for human progesterone in T47D human breast cancer cell; assay type: functional, cell-based
[20] = biological target: T1, Progesterone receptor (Homo sapiens); experiment: Antagonist efficacy for human progesterone in T47D human breast cancer cell; assay type: functional, cell-based
Progesterone receptor [21] = biological target: T2, Progesterone receptor; experiment: Effective concentration for human progesterone in T47D human breast cancer cell; assay type: cell-based, Cancer cell lines
Progesterone receptor [22] = biological target: T2, Progesterone receptor; experiment: Inhibition of human progesterone in T47D human breast cancer cell; assay type: cell-based

CC1CC(C)(C)Nc2ccc3c(c21)COc1c-3cc(F)cc1[N+](=O)[O-] (centres undefined)
Activity [1]: inactive | Activity [2]: inactive | EC50 (Progesterone receptor [3]): 781 nM | Ki (Progesterone receptor [4]): 370 nM | IC50 (Progesterone receptor [5]): 483 nM

CN(C)c1ccc([C@H]2C[C@]3(C)[C@@H](CC[C@]3(O)CCCO)[C@@H]3CCC4=CC(=O)CCC4=C32)cc1 [ONAPRISTONE]
IC50 [6]: 470 nM | Efficacy [7]: 49% | Activity [1]: inactive | Activity [2]: inactive

CC1=CC(C)(C)Nc2ccc3c(c21)COc1c(F)cc(C#N)cc1-3
IC50 (Glucocorticoid receptor [8]): 194 nM | Efficacy [9]: inactive | IC50 [10]: Not Active | Efficacy [11]: inactive | IC50 (Androgen receptor): 60 nM | EC50 (Progesterone receptor [3]): 16.7 nM | EC50 (Progesterone receptor [12]): 86 nM | Ki (Progesterone receptor [4]): 4.5 nM | IC50 (Progesterone receptor [5]): 149 nM

CC1=CC(C)(C)Nc2ccc3c(c21)COc1c(Br)cc(Br)cc1-3
EC50 (Progesterone receptor [13]): 1870 nM | Efficacy [14]: 86% | Ki (Progesterone receptor [15]): > 1000 nM

CC#C[C@]1(O)CC[C@H]2[C@@H]3CCC4=CC(=O)CCC4=C3[C@@H](c3ccc(N(C)C)cc3)C[C@@]21C
Efficacy [16]: 59%

CC1=CC(C)(C)Nc2ccc3c(c21)COc1ccc(F)cc1-3
IC50 (Glucocorticoid receptor [17]): Not Active | Efficacy [9]: inactive | Efficacy [18]: inactive | IC50 [6]: 3160 nM | Efficacy [7]: 30% | IC50 (Androgen receptor): 1250 nM

CC1=CC(C)(C)Nc2ccc3c(c21)COc1ccc(Br)cc1-3
IC50 (Glucocorticoid receptor [8]): 1930 nM | Efficacy [9]: inactive | IC50 [10]: Not Active | Efficacy [11]: inactive | IC50 (Androgen receptor): 395 nM | EC50 (Progesterone receptor [3]): 45 nM | EC50 (Progesterone receptor [12]): 552 nM | Ki (Progesterone receptor [4]): 15 nM | IC50 (Progesterone receptor [5]): 485 nM

COc1ccc2c(c1)OCc1c-2ccc2c1C(C)=CC(C)(C)N2
EC50 (Progesterone receptor [13]): 193 nM | Efficacy [19]: 24% | Efficacy [14]: 85% | Efficacy [20]: 83% | EC50 (Progesterone receptor [21]): > 1000 nM | Ki (Progesterone receptor [15]): 357 nM | IC50 (Progesterone receptor [22]): 514 nM

CC1=CC(C)(C)Nc2ccc3c(c21)COc1ccc([N+](=O)[O-])cc1-3
IC50 (Glucocorticoid receptor [8]): 689 nM | Efficacy [9]: inactive | IC50 [6]: 1890 nM | Efficacy [7]: 79% | IC50 (Androgen receptor): 60 nM | EC50 (Progesterone receptor [3]): 28.6 nM | EC50 (Progesterone receptor [12]): 257 nM | Ki (Progesterone receptor [4]): 6.8 nM | IC50 (Progesterone receptor [5]): 152 nM

Cc1cc(F)cc2c1OCc1c-2ccc2c1C(C)CC(C)(C)N2 (centres undefined)
Activity [1]: inactive | Activity [2]: inactive | EC50 (Progesterone receptor [3]): 637 nM | Ki (Progesterone receptor [4]): 391 nM | IC50 (Progesterone receptor [5]): 499 nM

CC1=CC(C)(C)Nc2ccc3c(c21)COc1ccc(Cl)cc1-3
IC50 (Glucocorticoid receptor [17]): Not Active | Efficacy [9]: inactive | Efficacy [18]: inactive | IC50 [10]: Not Active | Efficacy [11]: inactive | IC50 (Androgen receptor): 788 nM

— ChEMBL document CHEMBL1144945, “Development of progesterone receptor antagonists from 1,2-dihydrochromeno[3,4-f]quinoline agonist pharmacophore” (Bioorg Med Chem Lett, 2003)
